Measurements as given in patent publication US20240287070A1, “FUSED HETEROCYCLIC DERIVATIVES” (Janssen Sciences Ireland Unlimited Company, priority 2021, published 2024).

Experiments:
[1] = system: HBV (HepG2.117 cell line, inducibly HBV producing); assay: Anti-HBV activity, intracellular HBV DNA by real-time PCR in HepG2.117 cell line; type: cell-based, hepatitis B virus; settings: HepG2.117 cells, 3 days of treatment
How it was run: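 HepG2.117 cells replicate HBV under Tet-off control, without doxycycline. After induction of replication, cells were treated with serially diluted compound for 3 days, and intracellular HBV DNA was then quantified by real-time PCR with an HBV-specific primer set and probe.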

[2] = Human liver microsome stability; type: in vitro ADME; settings: 1 μM compound, NADPH 1 mM, 37° C., 0-60 min; for HLM Metabolism t1/2: pooled human liver microsomes 0.5 mg/mL
How it was run: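 Single incubations with human liver microsomes started with 1 mM NADPH; samples taken at 0, 5, 10, 20, 40 and 60 min, quenched in acetonitrile (1:3). Cassette LC-MS analysis with internal standard; t½ derived from slope of ln peak-area ratio versus time (k = −gradient).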

HepG2 or HepG2.117 cells = assay: Cytotoxicity, ATPlite Luminescence Assay; type: cell-based, human; settings: 3-days incubation unless marked with *
How it was run: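 Viability after compound treatment is read as ATP luminescence. Exposure lasts 3 or 4 days.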

SMILES	EC50 [1] [µM]	HLM Metabolism t1/2 [2] [h]	CC50 (HepG2 or HepG2.117 cells) [µM]	half-life at 1 μM ([2]; human, pooled human liver microsomes, pH 7.4, pooled human liver microsomes 0.5 mg/mL, read-out: HLM Metabolism t1/2) [h]
CC(c1ccc(C(C)(C)O)cc1)N1C[C@@H](C)n2nc3c(c2C1=O)CN(C(=O)c1ccc(Cl)c(Cl)c1)[C@H](C)C3 (single isomer, unassigned) [Compound 8B, (3R,7R)-2-(3,4-dichlorobenzoyl)-9-((S*)-1-(4-(2-hydroxypropan-2-yl)phenyl)ethyl)-3,7-dimethyl-1,2,3,4,8,9-hexahydropyrido[4′,3′:3,4]pyrazolo[1,5-a]pyrazin-10(7H)-one]	0.009	>3	18.7	
CC(c1ccc(S(C)(=O)=O)cc1)N1C[C@@H](C)n2nc3c(c2C1=O)CN(C(=O)c1ccc(Cl)c(Cl)c1)[C@H](C)C3 (single isomer, unassigned) [Compound 15B, (3R,7R)-2-(3,4-dichlorobenzoyl)-3,7-dimethyl-9-((S*)-1-(4-(methylsulfonyl)phenyl)ethyl)-1,2,3,4,8,9-hexahydropyrido[4′,3′:3,4]pyrazolo[1,5-a]pyrazin-10(7H)-one]	0.019	>3	> 50	
C[C@@H]1Cc2nn3c(c2CN1C(=O)c1ccc(Cl)c(C(F)(F)F)c1)C(=O)N([C@@H](C)c1ccc([S@]2(=O)=NCCC2)nc1)C[C@H]3C (relative stereo) [Compound 30D, (3R,7R)-2-(4-chloro-3-(trifluoromethyl)benzoyl)-3,7-dimethyl-9-((S*)-1-(6-((S*)-1-oxido-4,5-dihydro-3H-116-isothiazol-1-yl)pyridin-3-yl)ethyl)-1,2,3,4,8,9-hexahydropyrido[4′,3′:3,4]pyrazolo[1,5-a]pyrazin-10(7H)-one]	0.047	0.255	> 50	
CC(c1ncccn1)N1C[C@@H](C)n2nc3c(c2C1=O)CN(C(=O)c1ccc(Cl)c(Cl)c1)[C@H](C)C3 (single isomer, unassigned) [Compound 39B, (3R,7R)-2-(3,4-dichlorobenzoyl)-3,7-dimethyl-9-((S*)-1-(pyrimidin-2-yl)ethyl)-1,2,3,4,8,9-hexahydropyrido[4′,3′:3,4]pyrazolo[1,5-a]pyrazin-10(7H)-one]	0.035	>3	> 25	
CC(c1ccc(C(C)(C)O)nc1)N1C[C@@H](C)n2nc3c(c2C1=O)CN(C(=O)c1ccc(Cl)c(F)c1F)[C@H](C)C3 (single isomer, unassigned) [Compound 61B, (3R,7R)-2-(4-chloro-2,3-difluorobenzoyl)-9-((S*)-1-(6-(2-hydroxypropan-2-yl)pyridin-3-yl)ethyl)-3,7-dimethyl-1,2,3,4,8,9-hexahydropyrido[4′,3′:3,4]pyrazolo[1,5-a]pyrazin-10(7H)-one]	0.3	2.25	> 50	
CC(c1ccn(C(C)C)c(=O)c1)N1C[C@@H](C)n2nc3c(c2C1=O)CN(C(=O)c1ccc(Cl)c(C(F)(F)F)c1)[C@H](C)C3 (single isomer, unassigned) [Compound 47B, (3R,7R)-2-(4-chloro-3-(trifluoromethyl)benzoyl)-9-((S*)-1-(1-isopropyl-2-oxo-1,2-dihydropyridin-4-yl)ethyl)-3,7-dimethyl-1,2,3,4,8,9-hexahydropyrido[4′,3′:3,4]pyrazolo[1,5-a]pyrazin-10(7H)-one]	0.016	2.4	> 50	
CC(c1ncc(C(F)(F)F)cn1)N1C[C@@H](C)n2nc3c(c2C1=O)CN(C(=O)c1ccc(Cl)c(Cl)c1)[C@H](C)C3 (single isomer, unassigned) [Compound 40B, (3R,7R)-2-(3,4-dichlorobenzoyl)-3,7-dimethyl-9-((S*)-1-(5-(trifluoromethyl)pyrimidin-2-yl)ethyl)-1,2,3,4,8,9-hexahydropyrido[4′,3′:3,4]pyrazolo[1,5-a]pyrazin-10(7H)-one]	0.26	>3	22.9	
CC(c1cc(F)c(=O)n(C2CC2)c1)N1C[C@@H](C)n2nc3c(c2C1=O)CN(C(=O)c1ccc(Cl)c(Cl)c1)[C@H](C)C3 (single isomer, unassigned) [Compound 46B, (3R,7R)-9-((S*)-1-(1-cyclopropyl-5-fluoro-6-oxo-1,6-dihydropyridin-3-yl)ethyl)-2-(3,4-dichlorobenzoyl)-3,7-dimethyl-1,2,3,4,8,9-hexahydropyrido[4′,3′:3,4]pyrazolo[1,5-a]pyrazin-10(7H)-one]	0.031	>3	> 50	
C[C@@H]1Cc2nn3c(c2CN1C(=O)c1ccc(Cl)c(C(F)(F)F)c1)C(=O)N([C@H](C)c1ccc([S@@](C)(=O)=NC#N)cc1)C[C@H]3C (relative stereo) [Compound 20A, N—((R*)-(4-((R*)-1-((3R,7R)-2-(4-chloro-3-(trifluoromethyl)benzoyl)-3,7-dimethyl-10-oxo-1,3,4,7,8,10-hexahydropyrido[4′,3′:3,4]pyrazolo[1,5-a]pyrazin-9(2H)-yl)ethyl)phenyl)(methyl)(oxo)-16-sulfaneylidene)cyanamide]	0.041	>3	> 50	
CC(c1cnc(C(F)(F)F)cn1)N1C[C@@H](C)n2nc3c(c2C1=O)CN(C(=O)c1ccc(Cl)c(Cl)c1)[C@H](C)C3 (single isomer, unassigned) [Compound 7A, (3R,7R)-2-(3,4-dichlorobenzoyl)-3,7-dimethyl-9-((R*)-1-(5-(trifluoromethyl)pyrazin-2-yl)ethyl)-1,2,3,4,8,9-hexahydropyrido[4′,3′:3,4]pyrazolo[1,5-a]pyrazin-10(7H)-one]	0.52		44.8	> 3
CC(c1ccnc(OC(F)F)c1)N1C[C@@H](C)n2nc3c(c2C1=O)CN(C(=O)c1ccc(Cl)c(C(F)(F)F)c1)[C@H](C)C3 (single isomer, unassigned) [Compound 50B, (3R,7R)-2-(4-chloro-3-(trifluoromethyl)benzoyl)-9-((S*)-1-(2-(difluoromethoxy)pyridin-4-yl)ethyl)-3,7-dimethyl-1,2,3,4,8,9-hexahydropyrido[4′,3′:3,4]pyrazolo[1,5-a]pyrazin-10(7H)-one]	0.024	>3	10.2	
CC(c1ccc(NS(C)(=O)=O)cn1)N1C[C@@H](C)n2nc3c(c2C1=O)CN(C(=O)c1ccc(Cl)c(C(F)(F)F)c1)[C@H](C)C3 (single isomer, unassigned) [Compound 33B, N-(6-((S*)-1-((3R,7R)-2-(4-chloro-3-(trifluoromethyl)benzoyl)-3,7-dimethyl-10-oxo-1,3,4,7,8,10-hexahydropyrido[4′,3′:3,4]pyrazolo[1,5-a]pyrazin-9(2H)-yl)ethyl)pyridin-3-yl)methanesulfonamide]	0.043	>3	> 50	
CC(c1nnc(C2CC2)o1)N1C[C@@H](C)n2nc3c(c2C1=O)CN(C(=O)c1ccc(Cl)c(Cl)c1)[C@H](C)C3 (single isomer, unassigned) [Compound 44B, (3R,7R)-9-((S*)-1-(5-cyclopropyl-1,3,4-oxadiazol-2-yl)ethyl)-2-(3,4-dichlorobenzoyl)-3,7-dimethyl-1,2,3,4,8,9-hexahydropyrido[4′,3′:3,4]pyrazolo[1,5-a]pyrazin-10(7H)-one]	0.065	2.22	> 50	
CC(c1ccn(C(F)F)c(=O)c1)N1C[C@@H](C)n2nc3c(c2C1=O)CN(C(=O)c1ccc(Cl)c(C(F)(F)F)c1)[C@H](C)C3 (single isomer, unassigned) [Compound 49B, (3R,7R)-2-(4-chloro-3-(trifluoromethyl)benzoyl)-9-((S*)-1-(1-(difluoromethyl)-2-oxo-1,2-dihydropyridin-4-yl)ethyl)-3,7-dimethyl-1,2,3,4,8,9-hexahydropyrido [4′,3′:3,4]pyrazolo[1,5-a]pyrazin-10(7H)-one]	0.013	>3	> 50	
CC(c1ccc(C(C)(C)O)nc1)N1C[C@@H](C)n2nc3c(c2C1=O)CN(C(=O)c1ccc(Cl)c(F)c1)[C@H](C)C3 (single isomer, unassigned) [Compound 59B, (3R,7R)-2-(4-chloro-3-fluorobenzoyl)-9-((S*)-1-(6-(2-hydroxypropan-2-yl)pyridin-3-yl)ethyl)-3,7-dimethyl-1,2,3,4,8,9-hexahydropyrido[4′,3′:3,4]pyrazolo[1,5-a]pyrazin-10(7H)-one]	0.055	>3	> 50	
Cc1nnn(-c2ccc(C(C)N3C[C@@H](C)n4nc5c(c4C3=O)CN(C(=O)c3ccc(Cl)c(Cl)c3)[C@H](C)C5)cn2)n1 (single isomer, unassigned) [Compound 26B, (3R,7R)-2-(3,4-dichlorobenzoyl)-3,7-dimethyl-9-((S*)-1-(6-(5-methyl-2H-tetrazol-2-yl)pyridin-3-yl)ethyl)-1,2,3,4,8,9-hexahydropyrido[4′,3′:3,4]pyrazolo[1,5-a]pyrazin-10(7H)-one]	0.02	1.13	> 50	
Cc1ccc(C(C)N2C[C@@H](C)n3nc4c(c3C2=O)CN(C(=O)c2ccc(Cl)c(Cl)c2)[C@H](C)C4)nn1 (single isomer, unassigned) [Compound 6B, (3R,7R)-2-(3,4-dichlorobenzoyl)-3,7-dimethyl-9-((S*)-1-(6-methylpyridazin-3-yl)ethyl)-1,2,3,4,8,9-hexahydropyrido[4′,3′:3,4]pyrazolo[1,5-a]pyrazin-10(7H)-one]	0.065	>3	> 50	
